Earlier results as cited in US10849867B2, “Methods and compositions for treating conditions associated with an abnormal inflammatory response” (First Wave Bio, Inc., priority 2015, dated 2020).

Conditions: at 20° C.; cited from earlier work

SMILES: NCCO.O=C(Nc1ccc([N+](=O)[O-])cc1Cl)c1cc(Cl)ccc1O [ethanol amine salt, 5-chloro-N-(2-chloro-4-nitrophenyl)-2-hydroxybenzamide with 2-aminoethanol (1.1)]
- dissolves in distilled water: 180 to 280 mg/L
